Publication PMC5218480 (PLoS ONE, 2017)

System: MV-4-11 cells
Assay: Gene expression microarray analysis (Affymetrix PrimeView) and GSEA
Assay type: cell-based, human
Design: RFU PODN (11730768_x_at) / Fold change /veh PODN (11730768_x_at) / RFU LINC00158 (11744669_a_at) / Fold change /veh LINC00158 (11744669_a_at) / RFU DUSP10 (11751237_a_at) / Fold change /veh DUSP10 (11751237_a_at) / RFU ID3 (11757404_x_at) / Fold change /veh ID3 (11757404_x_at) / RFU PLEKHG5 (11737974_s_at) / Fold change /veh PLEKHG5 (11737974_s_at) / RFU LRRC4B (11730491_at) / Fold change /veh LRRC4B (11730491_at) / RFU GIMAP4 (11747438_a_at) / Fold change /veh GIMAP4 (11747438_a_at) / RFU KRT8 (11758183_x_at) / Fold change /veh KRT8 (11758183_x_at) / RFU CNN1 (11734310_a_at) / Fold change /veh CNN1 (11734310_a_at) / RFU VPS37D (11726825_at) / Fold change /veh VPS37D (11726825_at) / RFU C10orf10 (11716522_x_at) / Fold change /veh C10orf10 (11716522_x_at) / RFU KIR2DL2 /// KIR2DL4 /// KIR2DL5A /// KIR2DL5B /// KIR2DS1 /// KIR2DS2 /// KIR2DS3 /// KIR2DS4 /// KIR3DL3 /// KIR3DL3 /// KIR3DS1 (11738374_at) / Fold change /veh KIR2DL2 /// KIR2DL4 /// KIR2DL5A /// KIR2DL5B /// KIR2DS1 /// KIR2DS2 /// KIR2DS3 /// KIR2DS4 /// KIR3DL3 /// KIR3DL3 /// KIR3DS1 (11738374_at) / RFU C1QL1 (11718748_at) / Fold change /veh C1QL1 (11718748_at) / RFU TMPRSS4 (11747572_a_at) / Fold change /veh TMPRSS4 (11747572_a_at) / RFU HAMP (11756126_x_at) / Fold change /veh HAMP (11756126_x_at) / RFU RNFT2 (11725882_a_at) / Fold change /veh RNFT2 (11725882_a_at) / RFU NR4A2 (11747474_a_at) / Fold change /veh NR4A2 (11747474_a_at) / RFU ABCC12 (11746883_a_at) / Fold change /veh ABCC12 (11746883_a_at) / RFU TMEM136 (11760407_x_at) / Fold change /veh TMEM136 (11760407_x_at) / RFU CLDN22 /// WWC2 (11732394_at) / Fold change /veh CLDN22 /// WWC2 (11732394_at) / RFU HLA-DPB1 (11760878_x_at) / Fold change /veh HLA-DPB1 (11760878_x_at) / RFU SPINT1 (11716480_a_at) / Fold change /veh SPINT1 (11716480_a_at) / RFU GAP43 (11754022_s_at) / Fold change /veh GAP43 (11754022_s_at) / RFU A4GNT (11735810_at) / Fold change /veh A4GNT (11735810_at) / RFU PRB3 (11715151_x_at) / Fold change /veh PRB3 (11715151_x_at) / RFU TUBB4B (11761932_at) / Fold change /veh TUBB4B (11761932_at) / RFU CAPN14 (11732068_a_at) / Fold change /veh CAPN14 (11732068_a_at) / RFU TMCC2 (11721928_a_at) / Fold change /veh TMCC2 (11721928_a_at) / RFU IRGQ (11745062_a_at) / Fold change /veh IRGQ (11745062_a_at) / RFU FAM174B (11720279_a_at) / Fold change /veh FAM174B (11720279_a_at) / RFU TMPRSS4 (11748680_a_at) / Fold change /veh TMPRSS4 (11748680_a_at) / RFU FAM212B (11763350_a_at) / Fold change /veh FAM212B (11763350_a_at) / RFU PLEKHG5 (11743358_a_at) / Fold change /veh PLEKHG5 (11743358_a_at) / RFU ZSCAN30 (11745921_a_at) / Fold change /veh ZSCAN30 (11745921_a_at) / RFU CMKLR1 (11741424_a_at) / Fold change /veh CMKLR1 (11741424_a_at) / RFU LOC101060620 /// MAPK8IP1 (11723275_at) / Fold change /veh LOC101060620 /// MAPK8IP1 (11723275_at) / RFU SPTSSB (11747773_x_at) / Fold change /veh SPTSSB (11747773_x_at) / RFU PRSS12 (11739890_at) / Fold change /veh PRSS12 (11739890_at) / RFU BIN1 (11741810_x_at) / Fold change /veh BIN1 (11741810_x_at) / RFU WNT11 (11732464_a_at) / Fold change /veh WNT11 (11732464_a_at) / RFU C10orf10 (11716521_a_at) / Fold change /veh C10orf10 (11716521_a_at) / RFU C5orf56 (11738089_at) / Fold change /veh C5orf56 (11738089_at) / RFU CYB561 (11721691_x_at) / Fold change /veh CYB561 (11721691_x_at) / RFU ANKRD19P (11752326_a_at) / Fold change /veh ANKRD19P (11752326_a_at) / RFU OR2T12 /// OR2T33 /// OR2T8 (11738714_s_at) / Fold change /veh OR2T12 /// OR2T33 /// OR2T8 (11738714_s_at) / RFU VCAN (11748164_a_at) / Fold change /veh VCAN (11748164_a_at) / RFU JSRP1 (11732532_at) / Fold change /veh JSRP1 (11732532_at) / RFU KRTAP10-11 (11738290_x_at) / Fold change /veh KRTAP10-11 (11738290_x_at) / RFU MYO3A (11730013_a_at) / Fold change /veh MYO3A (11730013_a_at) / RFU EBF3 (11725865_a_at) / Fold change /veh EBF3 (11725865_a_at) / RFU CAMK2N1 (11719241_x_at) / Fold change /veh CAMK2N1 (11719241_x_at) / RFU C5orf56 (11738088_a_at) / Fold change /veh C5orf56 (11738088_a_at) / RFU OLFML3 (11715873_a_at) / Fold change /veh OLFML3 (11715873_a_at) / RFU LOC100653217 /// NTM (11731650_a_at) / Fold change /veh LOC100653217 /// NTM (11731650_a_at) / RFU MAPK11 (11762145_a_at) / Fold change /veh MAPK11 (11762145_a_at) / RFU FIZ1 (11724087_x_at) / Fold change /veh FIZ1 (11724087_x_at) / RFU OASL (11726364_x_at) / Fold change /veh OASL (11726364_x_at) / RFU SOX15 (11748057_x_at) / Fold change /veh SOX15 (11748057_x_at) / RFU CD79A (11719716_a_at) / Fold change /veh CD79A (11719716_a_at) / RFU HIST1H1D (11736915_at) / Fold change /veh HIST1H1D (11736915_at) / RFU CASKIN2 (11723855_a_at) / Fold change /veh CASKIN2 (11723855_a_at) / RFU LOC730098 (11760151_x_at) / Fold change /veh LOC730098 (11760151_x_at) / RFU OR4N2 (11742367_at) / Fold change /veh OR4N2 (11742367_at) / RFU PRRT2 (11749266_a_at) / Fold change /veh PRRT2 (11749266_a_at) / RFU SNX32 (11753110_a_at) / Fold change /veh SNX32 (11753110_a_at) / RFU CDHR5 (11726645_a_at) / Fold change /veh CDHR5 (11726645_a_at) / RFU RCAN1 (11760418_a_at) / Fold change /veh RCAN1 (11760418_a_at) / RFU FAM167A (11723789_a_at) / Fold change /veh FAM167A (11723789_a_at) / RFU FAM26E (11764081_at) / Fold change /veh FAM26E (11764081_at) / RFU ISYNA1 (11749810_s_at) / Fold change /veh ISYNA1 (11749810_s_at) / RFU ACY1 (11761880_at) / Fold change /veh ACY1 (11761880_at) / RFU 11764098_at / Fold change /veh 11764098_at / RFU SAMD14 (11745864_x_at) / Fold change /veh SAMD14 (11745864_x_at) / RFU NPB (11741838_a_at) / Fold change /veh NPB (11741838_a_at) / RFU TMPRSS6 (11731388_a_at) / Fold change /veh TMPRSS6 (11731388_a_at) / RFU KRTAP10-2 (11738614_at) / Fold change /veh KRTAP10-2 (11738614_at) / RFU ARHGAP8 /// PRR5-ARHGAP8 (11727945_x_at) / Fold change /veh ARHGAP8 /// PRR5-ARHGAP8 (11727945_x_at) / RFU KRTAP5-7 /// NADSYN1 (11734609_at) / Fold change /veh KRTAP5-7 /// NADSYN1 (11734609_at) / RFU RASL12 (11751679_a_at) / Fold change /veh RASL12 (11751679_a_at) / RFU CDKN2B (11736163_a_at) / Fold change /veh CDKN2B (11736163_a_at) / RFU PRF1 (11729649_at) / Fold change /veh PRF1 (11729649_at) / RFU, ZNF638 /// ZNF638-IT1 / Fold change vs veh, ZNF638 /// ZNF638-IT1 / RFU, PANK3 / Fold change vs veh, PANK3 / RFU, SH3YL1 / Fold change vs veh, SH3YL1 / RFU, ZEB2 / Fold change vs veh, ZEB2 / RFU, NRIP1 / Fold change vs veh, NRIP1 / RFU, PTTG1IP / Fold change vs veh, PTTG1IP / RFU, CAPN2 / Fold change vs veh, CAPN2 / RFU, MED14 / Fold change vs veh, MED14 / RFU, SNORA58 / Fold change vs veh, SNORA58 / RFU, C1orf63 / Fold change vs veh, C1orf63 / RFU, LRRFIP1 / Fold change vs veh, LRRFIP1 / RFU, NDUFAF7 / Fold change vs veh, NDUFAF7 / RFU, SLC12A2 / Fold change vs veh, SLC12A2 / RFU, IBTK / Fold change vs veh, IBTK / RFU, ESF1 / Fold change vs veh, ESF1 / Fold change vs veh, TMEM50B / RFU, TAOK1 / Fold change vs veh, TAOK1 / RFU, ACBD3 / Fold change vs veh, ACBD3 / RFU, TMA16 / Fold change vs veh, TMA16 / RFU, RWDD3 / Fold change vs veh, RWDD3 / RFU, BCAT1 / Fold change vs veh, BCAT1 / RFU, EDEM3 / Fold change vs veh, EDEM3 / RFU, TMEM33 / Fold change vs veh, TMEM33 / RFU, WDR75 / Fold change vs veh, WDR75 / RFU, AHCTF1 / Fold change vs veh, AHCTF1 / RFU, TFRC / Fold change vs veh, TFRC / RFU, ZDHHC17 / Fold change vs veh, ZDHHC17 / RFU, NOM1 / Fold change vs veh, NOM1 / RFU, ARL8B / Fold change vs veh, ARL8B / RFU, ZBTB11 / Fold change vs veh, ZBTB11 / RFU, TAMM41 / Fold change vs veh, TAMM41 / RFU, KIAA1704 /// LOC100996395 / Fold change vs veh, KIAA1704 /// LOC100996395 / RFU, ING1 / Fold change vs veh, ING1 / RFU, TRMT61B / Fold change vs veh, TRMT61B / RFU, FUBP3 / Fold change vs veh, FUBP3 / RFU, TP53 / Fold change vs veh, TP53 / RFU, TNKS2 / Fold change vs veh, TNKS2 / RFU, ZFP14 / Fold change vs veh, ZFP14 / RFU, ACTR2 / Fold change vs veh, ACTR2 / RFU, PPP3R1 / Fold change vs veh, PPP3R1 / RFU, PIK3R1 / Fold change vs veh, PIK3R1 / RFU, HNRNPA1 / Fold change vs veh, HNRNPA1 / RFU, RNF170 / Fold change vs veh, RNF170 / RFU, ZNF28 / Fold change vs veh, ZNF28 / RFU, RNGTT / Fold change vs veh, RNGTT / RFU, OGT / Fold change vs veh, OGT / RFU, BRD1 / Fold change vs veh, BRD1 / RFU, MARS / Fold change vs veh, MARS / RFU, ZNF655 / Fold change vs veh, ZNF655 / RFU, FAHD1 / Fold change vs veh, FAHD1 / RFU, BDP1 / Fold change vs veh, BDP1 / RFU, LRRCC1 / Fold change vs veh, LRRCC1 / RFU, ARID1A / Fold change vs veh, ARID1A / RFU, ZNF146 / Fold change vs veh, ZNF146 / RFU, ZNF330 / Fold change vs veh, ZNF330 / RFU, GPN3 / Fold change vs veh, GPN3 / RFU, C9orf123 / Fold change vs veh, C9orf123 / RFU, N4BP2L2 / Fold change vs veh, N4BP2L2 / RFU, ARFIP1 / Fold change vs veh, ARFIP1 / RFU, FAM179B / Fold change vs veh, FAM179B / RFU, BCL10 / Fold change vs veh, BCL10 / RFU, UHRF1BP1L / Fold change vs veh, UHRF1BP1L / RFU, BET1 / Fold change vs veh, BET1 / RFU, CNOT2 / Fold change vs veh, CNOT2 / RFU, ZNF268 / Fold change vs veh, ZNF268 / Fold change vs veh, ZNF507 / RFU, DGCR2 / Fold change vs veh, DGCR2 / RFU, WDSUB1 / Fold change vs veh, WDSUB1 / Fold change vs veh, HSP90B1 /// MIR3652 / RFU, ADSS / Fold change vs veh, ADSS / RFU, GK / Fold change vs veh, GK / RFU, ZNF148 / Fold change vs veh, ZNF148 / RFU, TAF9 / Fold change vs veh, TAF9 / RFU, SLC1A5 / Fold change vs veh, SLC1A5 / RFU, SLMO2 / Fold change vs veh, SLMO2 / RFU, ABCC4 / Fold change vs veh, ABCC4 / RFU, LOC101060439 /// RAP1B / Fold change vs veh, LOC101060439 /// RAP1B / RFU, RFX7 / Fold change vs veh, RFX7 / RFU, GTPBP10 / Fold change vs veh, GTPBP10 / RFU, CNEP1R1 / Fold change vs veh, CNEP1R1 / RFU, BIVM-ERCC5 /// ERCC5 / Fold change vs veh, BIVM-ERCC5 /// ERCC5 / RFU, ILF3 / Fold change vs veh, ILF3 / RFU 11762660_at / Fold change /veh 11762660_at / RFU VCAN (11757783_s_at) / Fold change /veh VCAN (11757783_s_at) / RFU DDX43 (11728927_at) / Fold change /veh DDX43 (11728927_at) / RFU KRT8 (11758188_x_at) / Fold change /veh KRT8 (11758188_x_at) / RFU NKD1 (11759106_at) / Fold change /veh NKD1 (11759106_at) / RFU SRD5A1 (11742802_a_at) / Fold change /veh SRD5A1 (11742802_a_at) / RFU TPSAB1 /// TPSB2 (11721975_s_at) / Fold change /veh TPSAB1 /// TPSB2 (11721975_s_at) / RFU GSTM3 (11746129_a_at) / Fold change /veh GSTM3 (11746129_a_at) / RFU IL23R (11737362_x_at) / Fold change /veh IL23R (11737362_x_at) / RFU TMEM51 (11727254_a_at) / Fold change /veh TMEM51 (11727254_a_at) / RFU PIWIL2 (11732686_x_at) / Fold change /veh PIWIL2 (11732686_x_at) / RFU ORM1 (11744905_x_at) / Fold change /veh ORM1 (11744905_x_at) / RFU CCDC152 (11743942_at) / Fold change /veh CCDC152 (11743942_at) / RFU ECM1 (11717891_a_at) / Fold change /veh ECM1 (11717891_a_at) / RFU IL23R (11748794_a_at) / Fold change /veh IL23R (11748794_a_at) / RFU TNFAIP8L3 (11732012_x_at) / Fold change /veh TNFAIP8L3 (11732012_x_at) / RFU MBOAT4 (11741988_at) / Fold change /veh MBOAT4 (11741988_at) / RFU 11764193_at / Fold change /veh 11764193_at / RFU TMEM53 (11763286_at) / Fold change /veh TMEM53 (11763286_at) / RFU MAGEB2 (11727129_at) / Fold change /veh MAGEB2 (11727129_at) / RFU TMEM200A (11744735_a_at) / Fold change /veh TMEM200A (11744735_a_at) / RFU CCDC152 (11751479_a_at) / Fold change /veh CCDC152 (11751479_a_at) / RFU FAM211A (11726209_a_at) / Fold change /veh FAM211A (11726209_a_at) / RFU RGS16 (11746705_a_at) / Fold change /veh RGS16 (11746705_a_at) / RFU VCAN (11755009_s_at) / Fold change /veh VCAN (11755009_s_at) / RFU RHOB (11743442_s_at) / Fold change /veh RHOB (11743442_s_at) / RFU RGS16 (11720943_a_at) / Fold change /veh RGS16 (11720943_a_at) / RFU RGS16 (11720944_at) / Fold change /veh RGS16 (11720944_at) / RFU, VPS4B / Fold change vs veh, VPS4B / RFU, CREB1 / Fold change vs veh, CREB1 / RFU, DNAJC13 / Fold change vs veh, DNAJC13 / RFU, GNAQ / Fold change vs veh, GNAQ / RFU, CDK5R1 / Fold change vs veh, CDK5R1 / RFU, ZRANB3 / Fold change vs veh, ZRANB3 / RFU, CUL4A / Fold change vs veh, CUL4A / RFU, CCNY / Fold change vs veh, CCNY / RFU, UFL1 / Fold change vs veh, UFL1 / RFU, COG3 / Fold change vs veh, COG3 / RFU, DIAPH2 / Fold change vs veh, DIAPH2 / RFU, SKA2 / Fold change vs veh, SKA2 / RFU, AFF3 / Fold change vs veh, AFF3 / RFU, LMF1 / Fold change vs veh, LMF1 / RFU, IPO11 / Fold change vs veh, IPO11 / RFU, DFFB / Fold change vs veh, DFFB / RFU, FOXP1 / Fold change vs veh, FOXP1 / RFU, CARD8 / Fold change vs veh, CARD8 / RFU, STRN3 / Fold change vs veh, STRN3 / RFU, ADK / Fold change vs veh, ADK / RFU, RASSF2 / Fold change vs veh, RASSF2 / RFU, WIPF1 / Fold change vs veh, WIPF1 / RFU, LARP1B / Fold change vs veh, LARP1B / RFU, RASA1 / Fold change vs veh, RASA1 / RFU, RB1 / Fold change vs veh, RB1 / RFU, PPFIA1 / Fold change vs veh, PPFIA1 / RFU, MAT2A / Fold change vs veh, MAT2A / RFU, CCT5 / Fold change vs veh, CCT5 / RFU, WDR92 / Fold change vs veh, WDR92 / RFU, CUX1 / Fold change vs veh, CUX1 / RFU, TTC7A / Fold change vs veh, TTC7A / RFU, TMEM135 / Fold change vs veh, TMEM135 / RFU, DEPTOR / Fold change vs veh, DEPTOR / RFU, CPM / Fold change vs veh, CPM / RFU, DNAJB6 / Fold change vs veh, DNAJB6 / RFU, CACNA2D3 / Fold change vs veh, CACNA2D3 / RFU, DTX4 / Fold change vs veh, DTX4 / RFU, TFCP2 / Fold change vs veh, TFCP2 / RFU, GMCL1 /// GMCL1P1 / Fold change vs veh, GMCL1 /// GMCL1P1 / RFU, AEBP2 / Fold change vs veh, AEBP2 / RFU, SNHG1 /// SNORD22 /// SNORD25 /// SNORD26 /// SNORD27 /// SNORD28 /// SNORD29 /// SNORD31 / Fold change vs veh, SNHG1 /// SNORD22 /// SNORD25 /// SNORD26 /// SNORD27 /// SNORD28 /// SNORD29 /// SNORD31 / Fold change (Aza/veh), C12orf56 (ProbeSet 11735607_a_at) / Fold change (ACY-1035/veh), C12orf56 (ProbeSet 11735607_a_at) / Fold change (Aza/veh), FGFR1OP (ProbeSet 11751329_s_at) / Fold change (ACY-1035/veh), FGFR1OP (ProbeSet 11751329_s_at) / Fold change (Aza/veh), VPS36 (ProbeSet 11739960_a_at) / Fold change (ACY-1035/veh), VPS36 (ProbeSet 11739960_a_at) / RFU SYPL1 (11715823_x_at) / Fold change /veh SYPL1 (11715823_x_at) / RFU IGFBP7 (11715501_s_at) / Fold change /veh IGFBP7 (11715501_s_at) / RFU REEP3 (11722064_at) / Fold change /veh REEP3 (11722064_at) / RFU IGLL1 (11728026_x_at) / Fold change /veh IGLL1 (11728026_x_at): dose or concentration left out as unconfirmed
Conditions: MV-4-11 cells, 48 hours

With Nc1ccc(-c2cccs2)cc1NC(=O)c1ccc2c(c1)cc(C1CC1)n2CCN1CCOCC1 [ACY-1035] the “RFU KRTAP10-11 (11738290_x_at)” value was 38.61 RFU.
